# According to PubChem BioAssay (NCI):
#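 Where inhibition never reached the appropriate level, the endpoint shown equals the highest concentration tested. Otherwise, values were interpolated linearly from a five-concentration, 48-hour dose response in 96-well plates. GI50: concentration for 50% inhibition of growth. TGI: concentration producing complete growth inhibition.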
# Key:
# Assay in all cases: inhibition of tumour cell growth, NCI panel, 48 h
# 786-0 renal = system: 786-0 renal
# A498 renal = system: A498 renal
# A549 NSCLC = system: A549 NSCLC
# ACHN renal = system: ACHN renal
# BT-549 breast = system: BT-549 breast
# CAKI-1 renal = system: CAKI-1 renal
# CCRF-CEM leukemia = system: CCRF-CEM leukemia
# COLO 205 colon = system: COLO 205 colon
# DU-145 prostate = system: DU-145 prostate
# EKVX NSCLC = system: EKVX NSCLC
# HCC-2998 colon = system: HCC-2998 colon
# HCT-116 colon = system: HCT-116 colon
# HCT-15 colon = system: HCT-15 colon
# HL-60(TB) leukemia = system: HL-60(TB) leukemia
# HOP-62 NSCLC = system: HOP-62 NSCLC
# HOP-92 NSCLC = system: HOP-92 NSCLC
# HS 578T breast = system: HS 578T breast
# HT29 colon = system: HT29 colon
# IGROV1 ovarian = system: IGROV1 ovarian
# K-562 leukemia = system: K-562 leukemia
# KM12 colon = system: KM12 colon
# LOX IMVI melanoma = system: LOX IMVI melanoma
# M14 melanoma = system: M14 melanoma
# MALME-3M melanoma = system: MALME-3M melanoma
# MCF7 breast = system: MCF7 breast
# MDA-MB-231 breast = system: MDA-MB-231 breast
# MDA-MB-435 = system: MDA-MB-435
# MOLT-4 leukemia = system: MOLT-4 leukemia
# NCI-H226 lung = system: NCI-H226 lung
# NCI-H23 lung = system: NCI-H23 lung
# NCI-H460 lung = system: NCI-H460 lung
# NCI-H522 lung = system: NCI-H522 lung
# NCI/ADR-RES ovarian = system: NCI/ADR-RES ovarian
# OVCAR-3 ovarian = system: OVCAR-3 ovarian
# OVCAR-4 ovarian = system: OVCAR-4 ovarian
# OVCAR-5 ovarian = system: OVCAR-5 ovarian
# OVCAR-8 ovarian = system: OVCAR-8 ovarian
# PC-3 prostate = system: PC-3 prostate
# RPMI-8226 leukemia = system: RPMI-8226 leukemia
# RXF 393 renal = system: RXF 393 renal
# SF-268 CNS = system: SF-268 CNS
# SF-295 CNS = system: SF-295 CNS
# SF-539 CNS = system: SF-539 CNS
# SK-MEL-2 melanoma = system: SK-MEL-2 melanoma
# SK-MEL-28 melanoma = system: SK-MEL-28 melanoma
# SK-MEL-5 melanoma = system: SK-MEL-5 melanoma
# SK-OV-3 ovarian = system: SK-OV-3 ovarian
# SN12C renal = system: SN12C renal
# SNB-19 CNS = system: SNB-19 CNS
# SNB-75 CNS = system: SNB-75 CNS
# SR leukemia = system: SR leukemia
# SW-620 colon = system: SW-620 colon
# T-47D breast = system: T-47D breast
# TK-10 renal = system: TK-10 renal
# U251 CNS = system: U251 CNS
# UACC-257 melanoma = system: UACC-257 melanoma
# UACC-62 melanoma = system: UACC-62 melanoma
# UO-31 renal = system: UO-31 renal
smiles,measurement,setting,value
COc1ccc2c(Nc3ccc(NS(C)(=O)=O)cc3)c3ccccc3nc2c1,GI50,786-0 renal,0.544 µM
same,TGI,786-0 renal,4.24 µM
same,GI50,A498 renal,0.375 µM
same,TGI,A498 renal,2.05 µM
same,GI50,A549 NSCLC,0.151 µM
same,TGI,A549 NSCLC,2.7 µM
same,GI50,ACHN renal,0.217 µM
same,TGI,ACHN renal,1.58 µM
same,GI50,BT-549 breast,1.5 µM
same,TGI,BT-549 breast,3.67 µM
same,GI50,CAKI-1 renal,0.45 µM
same,TGI,CAKI-1 renal,5.64 µM
same,GI50,CCRF-CEM leukemia,0.32 µM
same,TGI,CCRF-CEM leukemia,6.03 µM
same,GI50,COLO 205 colon,0.384 µM
same,TGI,COLO 205 colon,1.58 µM
same,GI50,DU-145 prostate,0.315 µM
same,TGI,DU-145 prostate,6.46 µM
same,GI50,EKVX NSCLC,1.43 µM
same,TGI,EKVX NSCLC,8.2 µM
same,GI50,HCC-2998 colon,0.732 µM
same,TGI,HCC-2998 colon,2.3 µM
same,GI50,HCT-116 colon,0.262 µM
same,TGI,HCT-116 colon,3.96 µM
same,GI50,HCT-15 colon,1.41 µM
same,TGI,HCT-15 colon,11.4 µM
same,GI50,HL-60(TB) leukemia,0.427 µM
same,TGI,HL-60(TB) leukemia,4.45 µM
same,GI50,HOP-62 NSCLC,0.429 µM
same,TGI,HOP-62 NSCLC,2.72 µM
same,GI50,HOP-92 NSCLC,0.136 µM
same,TGI,HOP-92 NSCLC,2.66 µM
same,GI50,HS 578T breast,0.292 µM
same,TGI,HS 578T breast,2.64 µM
same,GI50,HT29 colon,0.326 µM
same,TGI,HT29 colon,1.58 µM
same,GI50,IGROV1 ovarian,0.418 µM
same,TGI,IGROV1 ovarian,16.7 µM
same,GI50,K-562 leukemia,0.674 µM
same,TGI,K-562 leukemia,> 100 µM
same,GI50,KM12 colon,0.533 µM
same,TGI,KM12 colon,9.19 µM
same,GI50,LOX IMVI melanoma,0.285 µM
same,TGI,LOX IMVI melanoma,2.34 µM
same,GI50,M14 melanoma,0.599 µM
same,TGI,M14 melanoma,2.03 µM
same,GI50,MALME-3M melanoma,0.652 µM
same,TGI,MALME-3M melanoma,2.38 µM
same,GI50,MCF7 breast,0.3 µM
same,TGI,MCF7 breast,1.99 µM
same,GI50,MDA-MB-231 breast,1.52 µM
same,TGI,MDA-MB-231 breast,6.65 µM
same,GI50,MDA-MB-435,0.817 µM
same,TGI,MDA-MB-435,2.4 µM
same,GI50,MOLT-4 leukemia,0.111 µM
same,TGI,MOLT-4 leukemia,22.5 µM
same,GI50,NCI-H226 lung,0.229 µM
same,TGI,NCI-H226 lung,1.59 µM
same,GI50,NCI-H23 lung,0.475 µM
same,TGI,NCI-H23 lung,2.49 µM
same,GI50,NCI-H460 lung,0.0618 µM
same,TGI,NCI-H460 lung,1.11 µM
same,GI50,NCI-H522 lung,0.304 µM
same,TGI,NCI-H522 lung,1.84 µM
same,GI50,NCI/ADR-RES ovarian,3.63 µM
same,TGI,NCI/ADR-RES ovarian,28.6 µM
same,GI50,OVCAR-3 ovarian,0.99 µM
same,TGI,OVCAR-3 ovarian,3.09 µM
same,GI50,OVCAR-4 ovarian,1.23 µM
same,TGI,OVCAR-4 ovarian,4.13 µM
same,GI50,OVCAR-5 ovarian,1.02 µM
same,TGI,OVCAR-5 ovarian,4.91 µM
same,GI50,OVCAR-8 ovarian,0.432 µM
same,TGI,OVCAR-8 ovarian,5.26 µM
same,GI50,PC-3 prostate,0.735 µM
same,TGI,PC-3 prostate,10.1 µM
same,GI50,RPMI-8226 leukemia,0.431 µM
same,TGI,RPMI-8226 leukemia,4.09 µM
same,GI50,RXF 393 renal,0.871 µM
same,TGI,RXF 393 renal,2.4 µM
same,GI50,SF-268 CNS,0.469 µM
same,TGI,SF-268 CNS,4.03 µM
same,GI50,SF-295 CNS,0.381 µM
same,TGI,SF-295 CNS,2.53 µM
same,GI50,SF-539 CNS,0.525 µM
same,TGI,SF-539 CNS,2.28 µM
same,GI50,SK-MEL-2 melanoma,0.334 µM
same,TGI,SK-MEL-2 melanoma,2.29 µM
same,GI50,SK-MEL-28 melanoma,1.38 µM
same,TGI,SK-MEL-28 melanoma,3.45 µM
same,GI50,SK-MEL-5 melanoma,0.526 µM
same,TGI,SK-MEL-5 melanoma,1.89 µM
same,GI50,SK-OV-3 ovarian,0.364 µM
same,TGI,SK-OV-3 ovarian,5.26 µM
same,GI50,SN12C renal,0.487 µM
same,TGI,SN12C renal,13.2 µM
same,GI50,SNB-19 CNS,0.445 µM
same,TGI,SNB-19 CNS,11.4 µM
same,GI50,SNB-75 CNS,0.718 µM
same,TGI,SNB-75 CNS,2.12 µM
same,GI50,SR leukemia,0.112 µM
same,TGI,SR leukemia,6.46 µM
same,GI50,SW-620 colon,0.276 µM
same,TGI,SW-620 colon,3.29 µM
same,GI50,T-47D breast,0.34 µM
same,TGI,T-47D breast,3.14 µM
same,GI50,TK-10 renal,0.596 µM
same,TGI,TK-10 renal,4.96 µM
same,GI50,U251 CNS,0.475 µM
same,TGI,U251 CNS,9.02 µM
same,GI50,UACC-257 melanoma,0.628 µM
same,TGI,UACC-257 melanoma,2.17 µM
same,GI50,UACC-62 melanoma,0.383 µM
same,TGI,UACC-62 melanoma,1.93 µM
same,GI50,UO-31 renal,0.809 µM
same,TGI,UO-31 renal,8.87 µM
